The structures appear in SMILES notation. Where “and” joins values, the source holds several entries; their conditions need not be identical. Identical values can stand only once.

Broadly, the IC50 is the concentration that gives 50% inhibition.

Sequence of PARP (P09874 whole entry): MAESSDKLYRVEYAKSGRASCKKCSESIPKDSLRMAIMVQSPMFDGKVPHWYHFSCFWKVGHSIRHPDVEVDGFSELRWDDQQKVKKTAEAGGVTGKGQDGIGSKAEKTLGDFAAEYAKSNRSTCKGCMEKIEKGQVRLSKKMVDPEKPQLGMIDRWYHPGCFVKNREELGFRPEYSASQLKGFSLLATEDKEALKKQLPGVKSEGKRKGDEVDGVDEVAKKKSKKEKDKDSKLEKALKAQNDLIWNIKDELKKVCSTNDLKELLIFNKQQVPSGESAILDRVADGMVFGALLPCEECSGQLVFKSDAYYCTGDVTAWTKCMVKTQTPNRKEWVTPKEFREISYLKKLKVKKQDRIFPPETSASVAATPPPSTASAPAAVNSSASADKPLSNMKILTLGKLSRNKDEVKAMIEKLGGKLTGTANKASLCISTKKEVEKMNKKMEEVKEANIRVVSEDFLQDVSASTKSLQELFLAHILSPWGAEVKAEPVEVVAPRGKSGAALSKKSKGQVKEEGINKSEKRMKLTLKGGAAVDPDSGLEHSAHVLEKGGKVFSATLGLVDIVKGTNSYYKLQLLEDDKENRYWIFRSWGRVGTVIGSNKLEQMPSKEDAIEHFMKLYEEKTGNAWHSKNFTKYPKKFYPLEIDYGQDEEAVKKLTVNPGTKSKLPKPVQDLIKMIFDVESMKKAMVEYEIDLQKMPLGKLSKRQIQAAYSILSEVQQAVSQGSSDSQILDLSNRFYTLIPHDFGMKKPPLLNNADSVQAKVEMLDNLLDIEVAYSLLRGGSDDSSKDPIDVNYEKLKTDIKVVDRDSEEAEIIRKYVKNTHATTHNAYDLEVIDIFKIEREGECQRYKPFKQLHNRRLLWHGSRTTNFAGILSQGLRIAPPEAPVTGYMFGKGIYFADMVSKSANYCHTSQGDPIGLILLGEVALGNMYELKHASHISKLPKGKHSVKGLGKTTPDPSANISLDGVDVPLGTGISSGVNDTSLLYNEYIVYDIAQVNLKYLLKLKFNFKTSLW

The target in the first experiment is T1, purified recombinant human PARP (Homo sapiens, UniProt P09874).
T1 construct: purchased Trevigan (Gaithersburg, Md.)
T1 sequence (P09874 whole entry): as above
The experiment is described as follows: PARP enzyme assay (IC50). Format: biochemical. The following applies: IC50 (μM), approximate IC50 values, [3H]NAD. The method, then:
The reaction is initiated by adding enzyme and incubating the mixture at 25° C. After 2 minutes of incubation, the reaction is terminated by adding 500 microliters of ice cold 30% (w/v) trichloroacetic acid. The precipitate formed is transferred onto a glass fiber filter Packard Unifilter-GF/C) and washed three times with 70% ethanol. After the filter is dried, the radioactivity is determined by scintillation counting.
As to `CN(Cc1ccccc1)Cc1nc2cccc3c2n1CCNC3=O` [drawing 162], the IC50 was 0.088 µM.
On to `CN(Cc1ccccc1)Cc1nc2cccc3c2n1CCNC3=O` [drawing 179], for which the IC50 worked out at 0.166 µM.

The experiment is the same for the next values; noted with them: approximate IC50 values, [3H]NAD, read-out: IC50.
`O=C1NN=Cc2c[nH]c3cccc1c23`: the IC50 was found to be 0.018 µM.
Still for that read-out and setting: with `O=C1NN=Cc2cn(Cc3ccccc3)c3cccc1c23` the figure was 13 µM; with `O=C1NN=C(Cc2ccccc2)c2c[nH]c3cccc1c23`, 0.064 µM.
Turning to `CN(C)CCN(C)CC1=NNC(=O)c2cccc3[nH]cc1c23`, the IC50 stood at 0.035 µM.
The same measure, in the same setting: with `CCN(CC)CC1=NNC(=O)c2cccc3[nH]cc1c23` the figure was 0.034 µM.
Consider `O=C1NN=C(CN2CCC(N3CCCC3)CC2)c2c[nH]c3cccc1c23`, for which the IC50 came out at 0.098 µM.
Same read-out and setting: the value for `O=C1NN=C(CN2CCCC2)c2c[nH]c3cccc1c23` was 0.033 µM.
Same read-out and setting: the value for `O=C1NN=C(CN2CCCCC2)c2c[nH]c3cccc1c23` was 0.027 µM.
With `CCN1CCN(CC2=NNC(=O)c3cccc4[nH]cc2c34)CC1`, the IC50 came to 0.06 µM.
The same measure, in the same setting: with `O=C1NN=C(CN2CCN(Cc3ccccc3)CC2)c2c[nH]c3cccc1c23` the figure was 0.141 µM.
On the same count and under the same terms, the value for `O=C1NCCc2c[nH]c3cccc1c23` was 0.366 µM; that for `CC(C)(C)OC(=O)n1cc2c3c(cccc31)C(=O)NCC2` was 20 µM; that for `O=C1NCCc2c(Br)[nH]c3cccc1c23` was 0.051 µM.
The same measure, in the same setting: the value for `O=C1NCC(c2ccc(F)cc2)c2c[nH]c3cccc1c23` (stereo not drawn) was 0.427 µM.
On to `Nc1ccc(C2CNC(=O)c3cccc4[nH]cc2c34)cc1` (stereo not drawn), for which the IC50 is 0.172 µM.
Still for that read-out and setting: the value for `O=C1NCC(c2ccccc2)c2c[nH]c3cccc1c23` (stereo not drawn) was 0.176 µM; that for `O=C1CNC(=O)c2cccc3[nH]cc1c23` was 0.035 µM; that for `Cn1cc2c3c(cccc31)C(=O)NCC2=O` was 0.028 µM.
Consider `Cn1c(-c2ccccc2)c2c3c(cccc31)C(=O)NCC2=O`, for which the IC50 was found to be 0.058 µM.
`Cn1cc2c3c(cccc31)C(=O)NCC2O` (stereo not drawn): the IC50 stood at 0.79 µM.
Still for that read-out and setting: the value for `COC1CNC(=O)c2cccc3c2c1cn3C` (stereo not drawn) was 4.6 µM; that for `O=C1NC=Cc2c[nH]c3cccc1c23` was 0.161 µM; that for `O=C1NC=C(Br)c2c[nH]c3cccc1c23` was 0.061 µM.
Still for that read-out and setting: with `Cc1cccc(-c2nc3cccc4c3n2CCNC4=O)c1` the figure was 0.097 µM; with `Cc1ccc(-c2nc3cccc4c3n2CCNC4=O)cc1`, 0.11 µM; with `O=C1NCCn2c(C3CCCCC3)nc3cccc1c32`, 0.204 µM.
The same measure, in the same setting: the value for `O=C1NCCn2c(-c3ccc4ccccc4c3)nc3cccc1c32` was 0.032 µM; that for `O=C1NCCn2c(-c3ccc(Br)cc3)nc3cccc1c32` was 0.054 µM.
With `O=C1NCCn2c(-c3ccc(F)cc3)nc3cccc1c32`, the IC50 came out at 0.201 µM.
Still for that read-out and setting: the value for `O=C1NCCn2c(O)nc3cccc1c32` was 1.4 µM; that for `CN(C)CC(=O)Nc1cnc2c(c1)[nH]c(=O)c1ccccc12` was 0.165 µM; that for `CCC(=O)Nc1cnc2c(c1)[nH]c(=O)c1ccccc12` was 0.111 µM.
On the same count and under the same terms, with `O=C(CN1CCC(N2CCCC2)CC1)Nc1cnc2c(c1)[nH]c(=O)c1ccccc12` the figure was 0.134 µM.
On the same count and under the same terms, with `CC(C)N1CCN(CC(=O)Nc2cnc3c(c2)[nH]c(=O)c2ccccc23)CC1` the figure was 0.086 µM; with `O=C1NN=Cn2cnc3cccc1c32`, 20 µM.
For `O=C1NCCn2ccc3cccc1c32`, the IC50 turned out to be 0.7 µM.
Same read-out and setting: the value for `O=C1NCCN2CCc3cccc1c32` was 2.41 µM; that for `O=C1NN=C(CN2CCN(c3ccccn3)CC2)c2c[nH]c3cccc1c23` [drawing 105] was 0.025 µM; that for `O=C1NN=C(CN2CCN(c3ccccn3)CC2)c2c[nH]c3cccc1c23` [drawing 106] was 0.037 µM.

A further experiment relates to MSU crystal induced neutrophil migration. Description: MSU crystal-induced neutrophil recruitment (peritonitis, gout model). It counts as in vivo, Swiss albino mice. The following applies: 45 mg/kg i.p.; 6 h. Here is the method: Male outbread Swiss albino mice (20–22 g body weight) were purchased from Banton and Kingsman (T.O. stain; Hull, Humberside) and maintained on a standard chow pellet diet with tap water ad libitum and a 12:00 h light/dark cycle. All animals were housed for 1 week prior to experimentation to allow body weight to reach 28–30 g.
1,11b-dihydrobenzopyrano[4,3,2-de]isoquinolin-1-one, as an example PARP inhibitor, was dissolved in 100% DMSO at room temperature at a concentration of 45 mg in 2 ml. The compound was then injected into the peritoneal cavity, so as each mouse received a single dose corresponding to 45 mg/2 ml/kg (e.g. 60 μl for a mouse of 30 g). Control mice received DMSO at 2 ml/kg i.p. A third group of mice which were left untreated were added to control for potential effects of the vehicle. The study involved therefore, the following three groups: group A, untreated mice, n=6, group B, DMSO-treated mice, n=8, and group C, mice treated with 1,11b-dihydrobenzopyrano[4,3,2-de]isoquinolin-1-one, n=8.
MSU crystal-induced neutrophil recruitment was tested as follows. In all cases, mice were treated 1 h after the treatment noted above, with MSU crystals. A homogenous suspension of MSU crystals was obtained by a 30 min rotation. Peritonitis was induced by injection of 3 mg MSU crystals in 0.5 ml PBS (0.1 M, pH 7.4), and the recruitment of neutrophils into the cavity evaluated at the 6 h time point (Getting et al., 1997, J. Pharmacol. Exp. Ther. 283: 123–130). […]
An aliquot (100 μl) of the lavage fluid was then diluted 1:10 in Turk's solution (0.01% crystal violet in 3% acetic acid). The samples were then vortexed and 10 μl of the stained cell solution were placed in a Neubauer haematocymometer and neutrophils numbers counted using a light microscope (Olympus B061). […]
Data are shown for single mice, and also shown as mean±S.E. of (n) mice per group. Statistical differences were determined by ANOVA, plus Bonferroni test A P value<0.05 was taken as significant.
For `O=C1N=Cc2cccc3c2C1c1ccccc1O3` (stereo not drawn) [1,11b-dihydrobenzopyrano[4,3,2-de]isoquinolin-1-one], the “inhibition of cell influx vs. the vehicle group” value is listed as 55%.

Staying with this experiment, now noted: group C, 45 mg/kg i.p. 1 h prior to 3 mg MSU crystals; 6 h time-point; one value per mouse; 45 mg/kg.
`O=C1N=Cc2cccc3c2C1c1ccccc1O3` (stereo not drawn) [1,11b-dihydrobenzopyrano[4,3,2-de]isoquinolin-1-one]: the “Neutrophil Numbers (single mice)” value is 2.4 10^6 per mouse (2×) and 3.0 10^6 per mouse (2×) and 2.7 10^6 per mouse and 2.1 10^6 per mouse (2×) and 5.1 10^6 per mouse.

Staying with this experiment, now noted: group C, 45 mg/kg i.p.; MSU crystals (3 mg); 6 h; mean ± S.E. of (n) mice; vehicle 6.30 ± 0.33.
`O=C1N=Cc2cccc3c2C1c1ccccc1O3` (stereo not drawn) [1,11b-dihydrobenzopyrano[4,3,2-de]isoquinolin-1-one]: the “Neutrophils (10^6 per mouse)” value was 2.85 ± 0.34 (8)* 10^6 per mouse.

A further experiment concerns the target PARP (Homo sapiens, UniProt P09874).
Experiment: not given
The following applies: read-out: IC50 for inhibiting PARP; reported by Suto et al.; cited from earlier work.
For the compound `O=C1NCCc2c(OCCCCN3CCCCC3)cccc21` [3,4-dihydro-5-[4-(1-piperidinyl)butoxy]-1(2H)-isoquinolinone], the IC50 is 40 nM.

For a further experiment, the system named is infarct size caused by ischemia and reperfusion of the heart.
Experiment: not given
The following applies: rabbits, 1 mg/kg; cited from earlier work.
In the case of `Oc1cccc2c(O)nccc12` [1,5-dihydroxyisoquinoline], the “reduction in infarct size” value is 38–48%.

The experiment is the same for the next values; noted with them: rabbits, single injection 10 mg/kg, one minute before occlusion or before reperfusion; cited from earlier work.
In the case of `NC(=O)c1cccc(N)c1` [3-amino-benzamide], the “reduction in infarct size in the heart” value is 32–42%.

Another experiment has as its system focal cerebral ischemia. The experiment is described as follows: Focal cerebral ischemia (MCA cauterization with temporary bilateral CCA occlusion), infarct volume. Format: in vivo, male Long-Evans rats. The following applies: 5 mg/kg i.p. 2 h before and 2 h after MCA occlusion; 24 h; mean±SD; control 165.2±34.0. Here is the method:
Focal cerebral ischemia is produced by cauterization of the right distal MCA (middle cerebral artery) with bilateral temporary common carotid artery occlusion in male Long-Evans rats for 90 minutes. All procedures performed on the animals are approved by the University Institutional Animal Care and Use Committee of the University of Pennsylvania. A total of 42 rats (weights: 230–340 g) obtained from Charles River were used in this study. The animals fasted overnight with free access to water prior to the surgical procedure.
Two hours prior to MCA occlusion, varying amounts (control, n=14; 5 mg/kg, n=7; 10 mg/kg, n=7; 20 mg/kg, n=7; and 40 mg/kg, n=7) of the compound, 3,4-dihydro-5-[4-(1-piperidinyl)-butoxy]-1(2H)-isoquinolinone (“DPQ”) were dissolved in dimethyl sulfoxide (DMSO) using a sonicator. A volume of 1.28 ml/kg of the resulting solution was injected intraperitoneally into […].
Focal cerebral ischemia was produced by cauterization of the distal portion of the right MCA with bilateral temporary common carotid artery (CCA) occlusion by the procedure of Chen et al., “A Model of Focal Ischemic Stroke in the Rat: Reproducible Extensive Cortical Infarction”, Stroke 17:738–43 (1986) and/or Liu et al., “Polyethylene Glycol-conjugated Superoxide Dismutase and Catalase Reduce Ischemic Brain Injury”, Am. J. Physiol. 256:H589–93 (1989), both of which are hereby incorporated by reference.
Specifically, bilateral CCA's were isolated, and loops made from polyethylene (PE-10) catheter were carefully passed around the CCA's for later remote occlusion. The incision made previously for placement of the laser doppler probe was extended to allow observation of the rostral end of the zygomatic arch at the fusion point using a dental drill, and the dura mater overlying the MCA was cut. […] The burr hole was covered with a small piece of Gelform, and the wound was sutured to maintain the brain temperature within the normal or near-normal range.
After 90 minutes of occlusion, the carotid loops were released, the tail arterial catheter was removed, and all of the wounds were sutured. Gentamicin sulfate (10 mg/ml) was topically applied to the wounds to prevent infection. […]
Two hours after MCA occlusion, the animals were given the same doses of the PARP inhibitor as in the pre-treatment. […] To avoid artifacts due to edema, the damaged area was calculated by subtracting the area of the normal tissue in the hemisphere ipsilateral to the stroke from the area of the hemisphere contralateral to the stroke, by the method of Swanson et al., “A Semiautomated Method for Measuring Brain Infarct Volume”, J. Cereb. […] The total volume of infarction was calculated by summation of the damaged volume of the brain slices.
As for `O=C1NCCc2c(OCCCCN3CCCCC3)cccc21` [DPQ, 3,4-dihydro-5-[4-(1-piperidinyl)-butoxy]-1(2H)-isoquinolinone], the “damaged volume (infarct volume)” value came to 106.7±23.2 mm^3.

The experiment is the same for the next values; noted with them: 10 mg/kg i.p. 2 h before and 2 h after MCA occlusion; 24 h; mean±SD; control 165.2±34.0.
`O=C1NCCc2c(OCCCCN3CCCCC3)cccc21` [DPQ, 3,4-dihydro-5-[4-(1-piperidinyl)-butoxy]-1(2H)-isoquinolinone]: the “damaged volume (infarct volume)” value was 76.4±16.8 mm^3.

The experiment is the same for the next values; noted with them: 20 mg/kg i.p. 2 h before and 2 h after MCA occlusion; 24 h; mean±SD; control 165.2±34.0.
Regarding `O=C1NCCc2c(OCCCCN3CCCCC3)cccc21` [DPQ, 3,4-dihydro-5-[4-(1-piperidinyl)-butoxy]-1(2H)-isoquinolinone], the “damaged volume (infarct volume)” value was 110.2±42.0 mm^3.

The same experiment, now with this note: 40 mg/kg i.p. 2 h before and 2 h after MCA occlusion; 24 h; mean±SD; not significant vs control.
Take `O=C1NCCc2c(OCCCCN3CCCCC3)cccc21` [DPQ, 3,4-dihydro-5-[4-(1-piperidinyl)-butoxy]-1(2H)-isoquinolinone]: the “damaged volume (infarct volume)” value worked out at 135.6±44.8 mm^3.

The values are drawn from patent publication US7235557B2, “Compounds and their uses” (MGI GP, Inc., priority 2000, dated 2007).
